{"source": "patent US20200270588A1", "about": "“GLUCOSYL TRANSFERASE POLYPEPTIDES AND METHODS OF USE” (Syngenta Participations AG, priority 2017, published 2020)", "key": {"[1]": {"system": "rye bx-like glucosyl transferase (SEQ ID No 11)", "experiment": "UDP-Glo glucosyl transferase assay, purified enzyme", "assay_type": "biochemical", "settings": "herbicide V; close to the detection limit", "experimental": "(§1) Glucosyl transferase activity is assayed via measurement of acceptor substrate-dependent production of UDP from ultrapure UDP-glucose using the Promega UDP-Glo™ method and according to the manufacturer's instructions. Assays are run in 96 well microtiter plates.\n(§2) Enzyme, typically at a stock concentration of ˜2 mg/ml is diluted to an appropriate concentration in 50 mM K^+ Hepes buffer at pH7.5 containing 0.5 mg/mL bovine serum albumin (BSA) and 5 ul aliquots of this diluted enzyme added to each well of a Perkin Elmer white ½ area 96 well plate. […] Assays are run for an appropriate time (usually 10 to 60 min) so that the amount of UDP formed lies within the most nearly linear part of the UDP standard curve and are stopped with the addition and mixing of 25 ul UDP-Glo™ detection reagent (prepared as described below). Plates are then incubated at room temperature for 60 minutes and then read in a luminescence plate reader (Perkin Elmer Envision 2130 Multilabel Reader). A UDP standard curve is run alongside each set of assays and reagent blank control assays run with DMSO in place of test herbicide. Typically, 300 pmol of UDP corresponds to a Relative Luminescence Unit (RLU) reading of about 1.5E7 and the response curve between 0 and 600 pmol is fitted to a polynomial function (see for example FIG. 2).\n(§3) The UDP-Glo™ reagents are made up and used according to the manufacturer's instructions. Thus, Nucleotide Detection Buffer and ATP are combined to make nucleotide detection reagent (NDR) dispensed into aliquots and frozen to be freshly thawed before use.\n(§4) Km and kcat values in respect of UDP-glucose are derived by carrying out experiments to measure initial rates over a suitable range of concentrations of UDP glucose out at a fixed near saturating concentration of acceptor substrate. Best fit values of kcat, Km and kcat/Km are obtained by direct fitting of the data to the Michaelis-Menten equation using Graphpad Prism™ software.\n(§5) DNA sequences, optimized for E. coli codon usage, corresponding to SEQ IDs 1-15, encoding BX8 and BX9 orthologue polypeptides derived from a range of species (as depicted in FIG. 1) were synthesized by Genewiz (South Plainfield, USA) with 5′ NdeI and 3′ XhoI restriction sites. The various orthologues were synthesized with either a N-terminal 6×His purification tag or C-terminal 6×His purification tag (i.e. tried both ways to achieve best expression of activity) and cloned into the E. coli expression plasmid pET24a (Novagen) via the NdeI and XhoI restriction sites. Expression, purification and assay was as described in Example 1.\n(§6) Assays were carried out as described in Example 1. Partly purified C-terminally his tagged w/t Larkspur enzyme (SEQ ID No 10 with a 6 amino acid C-terminal tag) catalyzed glucosyl transfer to herbicide V at a rate estimated to be about 0.0065/s/pmol at 1 mM herbicide V. The similarly-tagged w/t bx-like enzymes from rye (SEQ ID No 11) and from wheat (SEQ ID No 4) were also active but only at levels close to the detection limit at ˜0.0015/s/pmol. Further examples of assay results from further experiments are depicted in Table 14. All of the proteins were C-terminally his tagged versions of the sequences referenced except for the Zea mays bx8 SEQ ID NO: 2 which was N-terminally his tagged."}, "[2]": {"system": "Larkspur bx glucosyl transferase (SEQ ID NO 10)", "experiment": "UDP-Glo glucosyl transferase assay, purified enzyme", "assay_type": "biochemical", "settings": "1 mM herbicide V", "experimental": "as §1, §2, §3, §4, §5, §6"}, "[3]": {"target": "T1, Zea mays bx8 (SEQ ID No: 2) with GIGVD peptide insert in place of D442 (Zea mays, UniProt Q8W2B7, INS441GIGV)", "T1 construct": "His tag (N); made in house; host or cells: E. coli, pET24a", "T1 sequence (Q8W2B7 other isoform, or with tags, fused parts or gaps INS441GIGV)": "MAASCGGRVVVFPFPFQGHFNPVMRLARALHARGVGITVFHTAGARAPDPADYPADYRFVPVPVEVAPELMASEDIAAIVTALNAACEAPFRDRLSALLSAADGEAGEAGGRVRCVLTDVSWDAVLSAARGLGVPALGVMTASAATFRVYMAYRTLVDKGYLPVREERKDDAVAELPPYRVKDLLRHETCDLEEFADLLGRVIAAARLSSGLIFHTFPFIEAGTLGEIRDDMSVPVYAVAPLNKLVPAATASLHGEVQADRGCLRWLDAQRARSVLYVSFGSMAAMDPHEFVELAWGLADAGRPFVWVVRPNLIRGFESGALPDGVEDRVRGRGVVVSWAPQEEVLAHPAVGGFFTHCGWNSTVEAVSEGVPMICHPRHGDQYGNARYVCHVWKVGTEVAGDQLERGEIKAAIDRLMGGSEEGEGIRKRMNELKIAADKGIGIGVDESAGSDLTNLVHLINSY", "experiment": "LC/MS glucosyl transferase assay (glucoside peak area), purified enzyme", "assay_type": "biochemical", "settings": "LC/MS assay run for 30 min", "experimental": "In an alternative method for assaying the various enzymes, the test glucosyl transferase enzyme is reacted with substrates exactly as above except that the assay is stopped by adding an equal volume of acetonitrile. Alternatively 50 or 100 μl samples from assay reactions are added to 500 μl ethyl acetate to stop the reaction. In this case samples are then vortexed and 400 μl of the ethyl acetate partition removed, dried down, and resuspended in 100 μl 80:20 acetonitrile/water. The formation of product gluco side and/or disappearance of substrate test herbicide is then monitored directly by LC/MS. Samples are analyzed by LC-MS using an Agilent 1290 liquid chromatography system and Thermo Q-Exactive mass spectrometer. The chromatography is achieved on a Waters Acquity C18 BEH (50×2.1 mm) 1.7 μm particle size column, using a 6 minute gradient run of Water (0.2% formic acid) and Acetonitrile. The Q-Exactive is operated in positive ionisation electrospray mode, using Full scan-AIF mode, at 35,000 resolution, between 100-800 m/z. All analytes are identified from the full scan data to within at least 5 ppm accuracy of their predicted pseudo-molecular ion [M+H]^+ m/z value. In order to obtain quantitative data standard curves are run using herbicides and herbicide glucosides synthesized as standards. […]"}, "[4]": {"system": "non-transgenic w/t Zea mays seedlings", "experiment": "LC/MS of foliar extracts after herbicide treatment", "assay_type": "in vivo", "settings": "24 and 48 h after treatment, 80% acetonitrile/water extract", "experimental": "The expected glucosides of herbicides V and VI corresponding to those seen in vitro are also similarly produced in transgenic […] plants expressing Zea mays BX9 or expressing mutant derivatives of Zea mays BX9. For example, LC/MS analysis of extracts of leaves obtained by maceration and extraction into 80% acetonitrile/water 24 and 48 h after treatment with herbicides V and VI indicate that the same beta-glucosides that are produced by the enzymes in vitro are produced in planta."}}, "data": [{"smiles": "CN1CC(O)N(c2cc(C(F)(F)F)ccn2)C1=O", "note": "(stereo not shown) [Compound V]", "values": [{"measurement": "rate of glucosyl transfer", "setting": "[1]", "result": "~0.0015", "unit": "s⁻¹ pmol⁻¹"}, {"measurement": "rate of glucosyl transfer", "setting": "[2]", "result": "about 0.0065 /s/pmol"}, {"measurement": "integrated peak area of glucoside product", "setting": "[3]", "result": "2.5E6", "unit": "units"}]}, {"smiles": "CON1C(=O)N(c2cc(C(F)(F)F)ccn2)C(O)[C@@H]1C", "note": "(stereo partly shown) [Compound VI]", "values": [{"measurement": "glucoside found in foliar extract", "setting": "[4]", "result": "the S-beta stereoisomer O-glucoside product of VI"}]}]}
